Measurements: article PMC5933457, “Probing biological activity through structural modelling of ligand-receptor interactions of 2,4-disubstituted thiazole retinoids” (Bioorganic & Medicinal Chemistry, 2018)
Read-outs that look alike come from different tables or passages of the source.

How the values were obtained:
[1] = biological target: T1, RARα ligand-binding domain (GST-RAR-α-LBD) (Homo sapiens, UniProt P10276); test: LanthaScreen TR-FRET RARα co-activator (receptor binding) assay; assay type: biochemical; settings: for binding-curve upper asymptote (coactivator recruitment), RARα: in words, Fig. 6A; for EC50: read-out: EC50 (95% confidence range) RARα
T1 construct: purchased Invitrogen
T1 sequence (P10276 183-417 limits assumed): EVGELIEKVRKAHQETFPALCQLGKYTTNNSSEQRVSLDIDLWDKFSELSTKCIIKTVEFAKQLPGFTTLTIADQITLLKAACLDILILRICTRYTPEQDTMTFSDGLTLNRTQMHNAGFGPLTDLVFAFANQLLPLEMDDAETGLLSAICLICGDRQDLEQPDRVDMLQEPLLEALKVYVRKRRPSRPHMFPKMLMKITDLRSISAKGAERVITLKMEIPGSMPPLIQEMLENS
Protocol: (§1) These predictions were tested through a receptor-binding assay for each RAR isotype (Fig. 6), where the assay signal is dependent on two parameters: the binding affinity of ligand to the RAR LBD, and the affinity of the coactivator for the ligand-LBD complex. For this assay, binding curves and variation in level of the upper asymptote can reflect differences in co-activator affinity for the ligand-LBD complex; variation in affinity of ligand for LBD shifts the midpoint (EC50) of the binding curve, whereas changes in the level of the upper asymptote may result from changes in coactivator affinity for the ligand-LBD complex alone, or in combination with changes in affinity for ligand with LBD.[23]
(§2) The binding interaction of each retinoid with RARα, β and γ were determined in vitro by time-resolved fluorescence resonance energy transfer (TR-FRET) using the LanthaScreen TR-FRET RARα, RARβ, and RARγ co-activator assays according to the manufacturer’s (Invitrogen™) instructions.[23] This uses a terbium-labeled anti-GST antibody, a fluorescein-labeled co activator peptide, and RARα/β/γ ligand-binding domains (LBD) that are tagged with glutathione-S-transferase (GST) in a homogenous assay format. All experiments were performed in black, 384-well low-volume plates in the dark at RT with a 4 h incubation time. The final assay volume was 20 μL and all dilutions were carried out using TR-FRET assay buffer, with a final DMSO concentration of 1%. A mixture of either 3.5 nM GST-RAR-α-LBD or 2.5 nM GST-RAR-β-LBD or 3 nM GST-RAR-γ-LBD with 62.5 nM Tb-anti GST antibody and 30 μM fluorescein-labeled peptide and retinoid or DMSO control was added to each of the wells. Each ligand assay was performed in duplicate and measured using a PHERAstar FS Microplate Reader (BMG Labtech, Ortenberg, Germany) with instrument settings as described in the manufacturer’s instructions for LanthaScreen assays. The TR-FRET signal was expressed as the ratio of the signals at 520 nm and 490 nm. The data were fitted to a three-parameter ligand-binding curve using SigmaPlot (version 12.5, Systat Software Inc., San Jose CA) and normalized to the lower asymptote of each binding curve. […] Since the assay involves interactions between ligand and LBD, and ligand-dependent interactions between the LBD and fluorescein-labeled co activator, the binding assay data were interpreted by simulating these coupled chemical reactions using the biochemical simulator COPASI version 4.3.[23], [54]
(§3) The readout of the Lanthascreen TR-FRET binding assay is based on a Forster resonance energy transfer (FRET) signal generated from the interaction between a terbium-labelled anti-glutathione-S-transferase (GST) antibody and a fluorescein-labelled coactivator peptide. The RAR ligand-binding domain (LBD) is a GST fusion protein and interaction between the LBD and the fluorescein-labelled coactivator peptide is driven by the binding of ligand to the LBD, and detected by the FRET signal from the terbium/fluorescein interaction when the terbium-labelled anti-GST binds the LBD fusion protein. The output of the assay thus relies on two binding interactions: ligand with LBD, and ligand-bound LBD with the coactivator peptide. As both interactions may be affected by the fit of ligand to the binding pocket of the LBD, we used the biochemical pathway simulator COPASI^1 to build a simple model of how the FRET signal output in the assay will vary according to differential changes in the kinetics of the two binding interactions. Reactions were modelled deterministically using mass-action kinetics described by ordinary differential equations (ODE) within COPASI.^1 This model enables us to assess the effect of different rate constants and varying ligand concentration on the formation of the final ternary complex that is the read-out from the Lanthascreen TR-FRET assay.

[2] = biological target: T2, RARβ ligand-binding domain (GST-RAR-β-LBD) (Homo sapiens, UniProt P10826); test: LanthaScreen TR-FRET RARβ co-activator (receptor binding) assay; assay type: biochemical; settings: for EC50: estimated EC50, TR-FRET co-activator assay, 4 h incubation, read-out: EC50 (95% confidence range) RARβ; for binding-curve upper asymptote (coactivator recruitment), RARβ: Fig. 6B
T2 construct: purchased Invitrogen
T2 sequence (P10826 183-417 limits assumed): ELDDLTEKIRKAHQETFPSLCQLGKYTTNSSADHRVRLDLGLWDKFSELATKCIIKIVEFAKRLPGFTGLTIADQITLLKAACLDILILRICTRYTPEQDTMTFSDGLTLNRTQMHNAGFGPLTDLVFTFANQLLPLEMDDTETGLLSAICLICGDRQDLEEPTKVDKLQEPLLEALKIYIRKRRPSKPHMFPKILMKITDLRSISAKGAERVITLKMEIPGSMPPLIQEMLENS
Protocol: as §1, §2, §3

[3] = biological target: T3, RARγ ligand-binding domain (GST-RAR-γ-LBD) (Homo sapiens, UniProt P13631); test: LanthaScreen TR-FRET RARγ co-activator (receptor binding) assay; assay type: biochemical; settings: for EC50: estimated EC50, TR-FRET co-activator assay, 4 h incubation, read-out: EC50 (95% confidence range) RARγ; for binding-curve upper asymptote (coactivator recruitment), RARγ: in words, Fig. 6C
T3 construct: purchased Invitrogen
T3 sequence (P13631 185-419 limits assumed): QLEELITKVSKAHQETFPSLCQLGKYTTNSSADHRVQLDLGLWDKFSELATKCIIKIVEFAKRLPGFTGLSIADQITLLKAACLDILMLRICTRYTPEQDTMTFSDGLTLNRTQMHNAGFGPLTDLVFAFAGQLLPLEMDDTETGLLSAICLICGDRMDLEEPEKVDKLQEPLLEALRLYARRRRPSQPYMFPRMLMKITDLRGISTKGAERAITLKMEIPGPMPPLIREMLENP
Protocol: as §1, §2, §3

[4] = tested on: TERA2.cl.SP12 embryonal carcinoma stem cells; test: Flow cytometry of cell-surface differentiation markers SSEA-3, TRA-1–60, A2B5; assay type: cell-based, human; settings: 10 μM retinoid, 7 days, compared to ATRA and control cultures, Fig. 7A
From the text: First, we examined neuronal differentiation in pluripotent TERA2.cl.SP12 human embryonal carcinoma stem cells in response to retinoid treatment. TERA2.cl.SP12 cells have been used in previous studies, [29] to test the ability of synthetic retinoids to induce differentiation along a neuronal or an alternative epithelial pathway at long in vitro timescales of up to three weeks. […] Since the parent carboxylic acid (GZ24) had little activity, the response to GZ22 was a real effect of the ester rather than a result of hydrolysis of the parent ester to the carboxylic acid.
The expression of specific cell surface protein markers (SSEA-3, TRA-1–60, A2B5) on TERA2.cl.SP12 was analyzed using flow cytometry as described previously.[53] Briefly, TERA2.cl.SP12 cells, 2 × 10^5 per 25 cm^2 flask, were seeded 12–24 h before treatment with 10 μM retinoid for 7 days. The primary antibodies used were SSEA-3 (diluted 1:10, University of Iowa Hybridoma Bank), TRA-1–60 (diluted 1:50, Abcam) and neural cell marker A2B5 (diluted 1:40, R&D Systems). Labeled cells were analyzed in a Guave EasyCyte Plus System (Millipore) flow cytometer and thresholds determining the numbers of positively expressing cells were set against the negative control antibody, P3X.

TERA2.cl.SP12 stem cells = test: Real-time PCR for neuronal markers NeuroD1 and PAX6; assay type: cell-based, human; settings: 10 μM, Fig. 7B
Protocol: Second, NeuroD1 and PAX6 are retinoid-induced transcription factors involved in regulating neuronal differentiation,[49], [50] and are expressed in neurons derived from TERA2.cl.SP12 stem cells.
(§4) Real time PCR was carried out immediately after treatment on both cell line lysates with 0.25% trypsin–EDTA. TERA-2.cl.SP12 cells were seeded at a density of 1 × 10^6 cells per 25 cm^2 flask, 12–24 h before treatment. […] SH-SY5Y cells were seeded at a density of 1 × 10^6 cells per 25 cm^2 flask, 12–24 h before treatment. […] Commercial RNA extraction kits (Qiagen) and reverse transcription (Applied Biosystems) kits were purchased and procedures used according to the manufacturer instructions. Real time PCR was performed using the TaqMan® Universal PCR Master Mix (Life technologies) and TaqMan® gene expression system (Applied Biosystems) based on probe sets to the specific genes to be analysed. Genecodes used are as follows: RARβ (Hs00233407_m1), CYP26-A1 (Hs00175627_m1), RARα (Hs00940448_g1), RARγ (Hs01559234_m1), PAX-6 (Hs01088112_m1), NeuroD1 (Hs01922995_s1). GADPH (Hs02758991_g1) and ACTB (Hs99999903_m1) were used as internal control genes for TERA-2.cl.SP12 and SH-SY5Y, respectively.

TERA2.cl.SP12 cells = test: Immunocytochemistry for A2B5, TUJ-1 and cytokeratin 8; assay type: cell-based, human
Protocol: Third, we carried out assessment of protein expression using immunofluorescent techniques on cultures of TERA2.cl.SP12 cells treated with retinoids.
TERA2.cl.SP12 cells were seeded at 5000 cells per well on poly-D-lysine (25 μg/ml) coated cover slips in 6-well plates. Cells were treated with each retinoid at a concentration of 10 μM for 7, 14 and 21 days (the media was changed every 3–4 days). Cells were also treated with 1% DMSO for the same time periods as a […] control. At the end of the treatment period, cells were fixed (4% para-formaldehyde in PBS for 30 min at room temperature (RT) and rinsed with PBS. One set of experiments was used for the cell surface marker A2B5 (diluted 1:100, R&D systems), and the other set was prepared for intracellular staining using 1% Triton-X-100 (Sigma Aldrich) in PBS as a permeabilizing agent for 10 min at RT. Non-specific labeling was blocked by incubation with a solution of 1% goat serum (Sigma Aldrich) containing 0.2% Tween-20 (Sigma Aldrich) in PBS for one hour at RT. The primary antibodies β-III tubulin antibody (TUJ-1) (1:200, Affymetrix eBioscience) and CK-8 antibody (1:500, Affymetrix eBioscience) were diluted in blocking solution and incubated with the cells for 1 h at RT. After washing three times for 15 min with PBS, cells were incubated for 1 h in the dark with anti-mouse FITC-conjugated secondary antibody IgM (1:128, Sigma Aldrich) for A2B5 staining, and anti-mouse Alexafluor 488 IgG (1:600, Invitrogen) for TUJ-1 and CK-8 staining. Hoechst 33,342 nuclear staining dye (1:1000, Molecular Probes) was dissolved in blocking solution after the secondary antibody staining step for nuclear staining.
Immunocytofluorescent images of fixed cells were visualized using a Leica SP5 confocal microscope. Scale bars are shown at 25 μm.

[5] = tested on: SH-SY5Y human neuroblastoma cells; test: Retinoid-induced gene expression (RARα, RARβ, RARγ, CYP26A1) by real-time PCR; assay type: cell-based
Protocol: As an additional assay of biological activity, short-term changes in expression of four genes in SH-SY5Y cells was employed; a neuroblastoma-derived lineage that undergoes neuronal differentiation in response to retinoid treatment. The four genes assayed, RARα, RARβ, RARγ and CYP26A, have RAREs associated with their promoters and may be directly regulated by retinoids.[51], [52]
as §4

Structure (SMILES)	binding-curve upper asymptote (coactivator recruitment), RARα [1]	EC50 [1] [nM]	EC50 [2] [nM]	binding-curve upper asymptote (coactivator recruitment), RARβ ([2]; in words)	RAR-type selectivity from binding assay ([2]; in words, from EC50 values of Table 1)	EC50 [3] [nM]	binding-curve upper asymptote (coactivator recruitment), RARγ [3]	proportion of cells expressing differentiation markers SSEA-3, TRA-1–60, A2B5 [4]	NeuroD1 mRNA expression, rank order (TERA2.cl.SP12 stem cells; after 5 days)	NeuroD1 mRNA expression, rank order (TERA2.cl.SP12 stem cells; after 7 days)	induction of PAX6 expression, rank order (TERA2.cl.SP12 stem cells; up to 7 days)	expression of epithelial phenotype marker cytokeratin 8 (TERA2.cl.SP12 cells; 10 μM, 1, 2 and 3 weeks, Fig. 7D)	expression of neuronal differentiation marker A2B5 (immunofluorescence) (TERA2.cl.SP12 cells; 10 μM, after 7 days, Fig. 7C)	neuronal differentiation by TUJ-1 staining (TERA2.cl.SP12 cells; 10 μM, up to 3 weeks, Fig. 7C)	induction of RARα and RARγ expression ([5]; 10 μM retinoid, over a 12 h period, Fig. 8A)	induction of RARβ expression, rank order ([5]; dose-response 1 nM to 1 μM, 8 h treatment, all doses, Fig. 8B)	induction of CYP26A1 expression, rank order ([5]; dose-response 1 nM to 1 μM, 8 h treatment, doses <1 μM, Fig. 8B)	EC50 ([1]; estimated EC50, TR-FRET co-activator assay, 4 h incubation) [nM]
CCOC(=O)c1ccc(-c2nc(-c3ccc4c(c3)C(C)(C)CCC4(C)C)c(C)s2)cc1 [GZ23]	lower asymptotes	88.9	12.1	high asymptotes	surprising selectivity for RARβ	847	intermediate	very little activity										
CC1=C(/C=C/C(C)=C/C=C/C(C)=C/C(=O)O)C(C)(C)CCC1 [ATRA, all-trans-retinoic acid, reference compound]	high curve asymptotes								GZ25 > GZ18 > ATRA	ATRA > GZ25	GZ25 ≫ ATRA > GZ18	not detectable	induced	most effective	greatest activity	GZ25 ≫ ATRA > GZ18	GZ25 > GZ18 > ATRA	
Cc1sc(-c2ccc(C(=O)O)cc2)nc1-c1ccccc1 [GZ24]	lower asymptotes		77.8	very low asymptotes		109	intermediate	very little activity										77.5
